# Source: patent publication US20240101538A1, “PROTEIN-PROTEIN INTERACTION MODULATORS OF AURORA KINASE A AND THEIR USE IN THE PREVENTION AND/OR TREATMENT OF CANCER” (EBERHARD KARLS UNIVERSITÄT TÜBINGEN, priority 2020, published 2024)
# Read-outs that look alike come from different tables or passages of the source.
# Experiments:
# NMP53^−/− cells = assay: Colony formation assay on NMP53^−/− cells; format: cell-based, murine; settings: colony formation assay; for minimal effective concentration: 5 days, read-out: EC (NMP53^−/−); for selectivity for NMP53^−/− cells: NMP53^−/− versus NMCdkn2a^ARF−/− cells
# Description: (§1) To evaluate the effect of small molecules equipped with R-spine interacting moieties, the inventors screened a focused library of proprietary p38a MAP-Kinase inhibitors which were equipped with R-spine interacting pharmacophores. To this end, the inventors utilized a screening system as developed in Dauch et al.^2 The screening system is based on colony formation assays of cell lines isolated from Nras-driven, Trp53-deficient murine HCCs, whose development is dependent on MYC (NMP53^−/− cells), as well as Nras-driven, Cdkn2a^ARF-deficient murine HCCs, which develop independently of MYC (NMCdkn2a^ARF−/− cells). Importantly, NMP53^−/− cells are sensitive to AURKA inhibitors, which induce a conformational shift in AURKA, whereas NMCdkn2a^ARF−/− are not sensitive to such compounds.
# (§2) For Colony Formation Assays, cells were seeded at a density of 50 000 cells per 6 well and next day treated with a 2-fold dilution series of the indicated compounds or the highest corresponding DMSO concentration as control. After 5 days, the cells were fixed with a 10% formaldehyde solution for 30 min, washed once with water, stained with a 0.5% crystal violet solution for 30 min and washed twice with water. The compounds effective concentration (EC) was determined according to the lowest concentration in the dilution series, that inhibited cell growth substantially. The resulting benzamide containing hit structure 1, with a twofold selectivity towards NMP53^−/− cells (effective concentration on NMP53^−/− cells (EC): 2 μM, EC on Cdkn2a^ARF−/−: 4 μM, FIG. 1), served as the inventors' starting point for further compound development.
# NMCdkn2a^ARF−/− cells = assay: Colony formation assay on NMCdkn2a^ARF−/− cells; format: cell-based, murine; settings: 5 days, read-out: EC (NMCdkn2a^ARF−/−)
# Description: as §1, §2
# [1] = Mus musculus, 120 h, lowest concentration of 2-fold dilution series that inhibited cell growth substantially
compound,measurement,setting,value
"CC(=O)Nc1cc(NCc2ccc(-c3cn[nH]c3)cc2)ccc1F [Compound 2b, N-(5-((4-(1H-pyrazole-4-yl)benzyl)amino)-2-fluorophenyl)acetamide]",minimal effective concentration,"NMP53^−/− cells; Mus musculus, 120 h",> 4 µM
same,minimal effective concentration,NMCdkn2a^ARF−/− cells; [1],> 4 µM
same,minimal effective concentration,"NMCdkn2a^ARF−/− cells; Mus musculus, 120 h",> 4 µM
"CCn1cc(-c2ccc(CNc3ccc(F)c(NC(=O)CCc4ccco4)c3)cc2)cn1 [Compound 3b, N-(5-((4-(1-ethyl-1H-pyrazole-4-yl)benzyl)amino)-2-fluorophenyl)-3-(furan-2-yl)propanamide]",minimal effective concentration,NMP53^−/− cells; [1],0.125 µM
same,minimal effective concentration,"NMP53^−/− cells; Mus musculus, 120 h",0.125 µM
same,selectivity for NMP53^−/− cells,NMP53^−/− cells,loss of selectivity
same,minimal effective concentration,NMCdkn2a^ARF−/− cells; [1],0.25 µM
same,minimal effective concentration,"NMCdkn2a^ARF−/− cells; Mus musculus, 120 h",0.25 µM
"CCCn1cc(-c2ccc(CNc3ccc(F)c(NC(=O)CCc4ccco4)c3)cc2)cn1 [Compound 3c, N-(2-fluoro-5-((4-(1-propyl-1H-pyrazole-4-yl)benzyl)amino)phenyl)-3-(furan-2-yl)propanamide]",minimal effective concentration,NMP53^−/− cells; [1],4 µM
same,minimal effective concentration,"NMP53^−/− cells; Mus musculus, 120 h",4 µM
same,selectivity for NMP53^−/− cells,NMP53^−/− cells,loss of selectivity
same,minimal effective concentration,NMCdkn2a^ARF−/− cells; [1],> 4 µM
same,minimal effective concentration,"NMCdkn2a^ARF−/− cells; Mus musculus, 120 h",> 4 µM
"CC(C)n1cc(-c2ccc(CNc3ccc(F)c(NC(=O)CCc4ccco4)c3)cc2)cn1 [Compound 3d, N-(2-fluoro-5-((4-(1-isopropyl-1H-pyrazole-4-yl)benzyl)amino)phenyl)-3-(furan-2-yl)propanamide]",minimal effective concentration,NMP53^−/− cells; [1],4 µM
same,minimal effective concentration,"NMP53^−/− cells; Mus musculus, 120 h",4 µM
same,selectivity for NMP53^−/− cells,NMP53^−/− cells,loss of selectivity
same,minimal effective concentration,NMCdkn2a^ARF−/− cells; [1],4 µM
same,minimal effective concentration,"NMCdkn2a^ARF−/− cells; Mus musculus, 120 h",4 µM
"CN(C(=O)CCc1ccco1)c1cc(NCc2ccc(-c3cnn(C)c3)cc2)ccc1F [Compound 4, N-(2-fluoro-5-((4-(1-methyl-1H-pyrazole-4-yl)benzyl)amino)phenyl)-3-(furan-2-yl)-N-methylpropanamide]",minimal effective concentration,NMP53^−/− cells; [1],> 4 µM
same,minimal effective concentration,"NMP53^−/− cells; Mus musculus, 120 h",> 4 µM
same,minimal effective concentration,NMP53^−/− cells; lowest concentration of 2-fold dilution series that inhibited cell growth substantially,>4 µM
same,minimal effective concentration,NMCdkn2a^ARF−/− cells; [1],> 4 µM
same,minimal effective concentration,"NMCdkn2a^ARF−/− cells; Mus musculus, 120 h",> 4 µM
"O=C(CC1CCCCC1)Nc1cc(NCc2cc(-c3cc4cccnc4[nH]3)ccn2)ccc1F [Compound 8oj, N-(5-(((4-(1H-Pyrrolo[2,3-b]pyridin-2-yl)pyridin-2-yl)methyl)amino)-2-fluorophenyl)-2-cyclohexylacetamide]",minimal effective concentration,"NMP53^−/− cells; Mus musculus, 120 h",0.5 µM
same,minimal effective concentration,"NMCdkn2a^ARF−/− cells; Mus musculus, 120 h",1 µM
"O=C(CC1CC1)Nc1cc(NCc2cc(-c3cc4cccnc4[nH]3)ccn2)ccc1F [Compound 8ok, N-(5-(((4-(1H-Pyrrolo[2,3-b]pyridin-2-yl)pyridin-2-yl)methyl)amino)-2-fluorophenyl)-2-cyclopropylacetamide]",minimal effective concentration,"NMP53^−/− cells; Mus musculus, 120 h",0.5 µM
same,minimal effective concentration,"NMCdkn2a^ARF−/− cells; Mus musculus, 120 h",1 µM
"Cc1ccc(CCC(=O)Nc2cc(NCc3ccc(-c4cn[nH]c4)cc3)ccc2F)o1 [Compound 106h, N-(5-((4-(1H-Pyrazol-4-yl)benzyl)amino)-2-fluorophenyl)-3-(5-methylfuran-2-yl)propanamide]",minimal effective concentration,"NMP53^−/− cells; Mus musculus, 120 h",0.25 µM
same,minimal effective concentration,"NMCdkn2a^ARF−/− cells; Mus musculus, 120 h",2 µM
"O=C(CCc1ccc[nH]1)Nc1cc(NCc2ccc(-c3cn[nH]c3)cc2)ccc1F [Compound 106q, N-(5-((4-(1H-Pyrazol-4-yl)benzyl)amino)-2-fluorophenyl)-3-(1H-pyrrol-2-yl)propanamide]",minimal effective concentration,"NMP53^−/− cells; Mus musculus, 120 h",1 to 2 µM
same,minimal effective concentration,"NMCdkn2a^ARF−/− cells; Mus musculus, 120 h",> 4 µM
"Cn1cc(-c2ccc(CNc3ccc(F)c(NC(=O)CCC4CCCO4)c3)cc2)cn1 (stereo not drawn) [Compound 107g, N-(2-fluoro-5-((4-(1-methyl-1H-pyrazol-4-yl)benzyl)amino)phenyl)-3-(tetrahydrofuran-2-yl)propanamide]",minimal effective concentration,"NMP53^−/− cells; Mus musculus, 120 h",0.125 µM
same,minimal effective concentration,"NMCdkn2a^ARF−/− cells; Mus musculus, 120 h",2 µM
"Cc1ccc(CCC(=O)Nc2cc(NCc3ccc(-c4cnn(C)c4)cc3)ccc2F)o1 [Compound 107h, N-(2-fluoro-5-((4-(1-methyl-1H-pyrazol-4-yl)benzyl)amino)phenyl)-3-(5-methylfuran-2-yl)propanamide]",minimal effective concentration,"NMP53^−/− cells; Mus musculus, 120 h",0.125 µM
same,minimal effective concentration,"NMCdkn2a^ARF−/− cells; Mus musculus, 120 h",1 µM
"Cn1cc(-c2ccc(CNc3ccc(F)c(NC(=O)Cc4ccco4)c3)cc2)cn1 [Compound 107m, N-(2-fluoro-5-((4-(1-methyl-1H-pyrazol-4-yl)benzyl)amino)phenyl)-2-(furan-2-yl)acetamide]",minimal effective concentration,"NMP53^−/− cells; Mus musculus, 120 h",0.125 µM
same,minimal effective concentration,"NMCdkn2a^ARF−/− cells; Mus musculus, 120 h",16 µM
"Cn1cc(-c2ccc(CNc3ccc(F)c(NC(=O)CCc4ccc[nH]4)c3)cc2)cn1 [Compound 107q, N-(2-fluoro-5-((4-(1-methyl-1H-pyrazol-4-yl)benzyl)amino)phenyl)-3-(1H-pyrrol-2-yl)propanamide]",minimal effective concentration,"NMP53^−/− cells; Mus musculus, 120 h",0.5 to 1 µM
same,minimal effective concentration,"NMCdkn2a^ARF−/− cells; Mus musculus, 120 h",4 µM
"O=C(CCc1ccco1)Nc1cc(NCc2ccc(-c3cn[nH]c3)cc2)ccc1Cl [Compound 113a, N-(5-((4-(1H-Pyrazol-4-yl)benzyl)amino)-2-chlorphenyl)-3-(furan-2-yl)propanamide]",minimal effective concentration,NMP53^−/− cells,0.5 µM
same,minimal effective concentration,NMCdkn2a^ARF−/− cells,>1 µM
"Cn1cc(-c2ccc(COc3ccc(F)c(NC(=O)CCc4ccccc4)c3)cc2)cn1 [Compound 124, N-(2-fluoro-5-((4-(1-methyl-1H-pyrazol-4-yl)benzyl)oxy)phenyl)-3-phenylpropanamide]",minimal effective concentration,"NMP53^−/− cells; Mus musculus, 120 h",0.25 µM
same,minimal effective concentration,"NMCdkn2a^ARF−/− cells; Mus musculus, 120 h",> 1 µM
"COc1cc(CNc2ccc(F)c(NC(=O)CCc3ccco3)c2)ccc1-c1cn[nH]c1 [Compound 127b, N-(2-fluoro-5-((3-methoxy-4-(1H-pyrazol-4-yl)benzyl)amino)phenyl)-3-(furan-2-yl)propanamide]",minimal effective concentration,"NMP53^−/− cells; Mus musculus, 120 h",0.25 µM
same,minimal effective concentration,"NMCdkn2a^ARF−/− cells; Mus musculus, 120 h",> 1 µM
"O=C(CCc1ccco1)Nc1cc(NCc2ccc(-c3cn[nH]c3)cc2F)ccc1F [Compound 127c, N-(2-fluoro-5-((2-fluoro-4-(1H-pyrazol-4-yl)benzyl)amino)phenyl)-3-(furan-2-yl)propanamide]",minimal effective concentration,"NMP53^−/− cells; Mus musculus, 120 h",0.125 µM
same,minimal effective concentration,"NMCdkn2a^ARF−/− cells; Mus musculus, 120 h",0.5 to 1 µM
"COc1cc(-c2cn[nH]c2)ccc1CNc1ccc(F)c(NC(=O)CCc2ccco2)c1 [Compound 127d, N-(2-fluoro-5-((2-methoxy-4-(1H-pyrazol-4-yl)benzyl)amino)phenyl)-3-(furan-2-yl)propanamide]",minimal effective concentration,"NMP53^−/− cells; Mus musculus, 120 h",0.25 µM
same,minimal effective concentration,"NMCdkn2a^ARF−/− cells; Mus musculus, 120 h",2 µM
"O=C(CCc1ccco1)Nc1cc(NCc2ccc(-c3cn[nH]c3)nc2)ccc1F [Compound 127e, N-(5-(((6-(1H-Pyrazol-4-yl)pyridin-3-yl)methyl)amino)-2-fluorophenyl)-3-(furan-2-yl)-propanamide]",minimal effective concentration,"NMP53^−/− cells; Mus musculus, 120 h",0.5 µM
same,minimal effective concentration,"NMCdkn2a^ARF−/− cells; Mus musculus, 120 h",> 2 µM
"Cn1cc(-c2ccc(CNc3ccc(F)c(NC(=O)CCc4ccco4)c3)cc2F)cn1 [Compound 128a, N-(2-fluoro-5-((3-fluoro-4-(1-methyl-1H-pyrazol-4-yl)benzyl)amino)phenyl)-3-(furan-2-yl)propanamide]",minimal effective concentration,"NMP53^−/− cells; Mus musculus, 120 h",0.032 µM
same,minimal effective concentration,"NMCdkn2a^ARF−/− cells; Mus musculus, 120 h",0.125 to 0.25 µM
"COc1cc(CNc2ccc(F)c(NC(=O)CCc3ccco3)c2)ccc1-c1cnn(C)c1 [Compound 128b, N-(2-fluoro-5-((3-methoxy-4-(1-methyl-1H-pyrazol-4-yl)benzyl)amino)phenyl)-3-(furan-2-yl)propanamide]",minimal effective concentration,"NMP53^−/− cells; Mus musculus, 120 h",0.062 µM
same,minimal effective concentration,"NMCdkn2a^ARF−/− cells; Mus musculus, 120 h",> 0.5 µM
"Cn1cc(-c2ccc(CNc3ccc(F)c(NC(=O)CCc4ccco4)c3)c(F)c2)cn1 [Compound 128c, N-(2-fluoro-5-((2-fluoro-4-(1-methyl-1H-pyrazol-4-yl)benzyl)amino)phenyl)-3-(furan-2-yl)propanamide]",minimal effective concentration,"NMP53^−/− cells; Mus musculus, 120 h",0.125 µM
same,minimal effective concentration,"NMCdkn2a^ARF−/− cells; Mus musculus, 120 h",0.5 to 1 µM
"COc1cc(-c2cnn(C)c2)ccc1CNc1ccc(F)c(NC(=O)CCc2ccco2)c1 [Compound 128d, N-(2-fluoro-5-((2-methoxy-4-(1-methyl-1H-pyrazol-4-yl)benzyl)amino)phenyl)-3-(furan-2-yl)propanamide]",minimal effective concentration,"NMP53^−/− cells; Mus musculus, 120 h",0.031 µM
same,minimal effective concentration,"NMCdkn2a^ARF−/− cells; Mus musculus, 120 h",> 0.5 µM
"Cn1cc(-c2ccc(CNc3ccc(F)c(NC(=O)CCc4ccco4)c3)cn2)cn1 [Compound 128e, N-(2-fluoro-5-(((6-(1-methyl-1H-pyrazol-4-yl)pyridin-3-yl)methyl)amino)phenyl)-3-(furan-2-yl)propanamide]",minimal effective concentration,"NMP53^−/− cells; Mus musculus, 120 h",0.25 µM
same,minimal effective concentration,"NMCdkn2a^ARF−/− cells; Mus musculus, 120 h",> 2 µM
"Cn1cc(-c2ccc(CNc3ccc(F)c(NC(=O)CCc4ccccc4)c3)nc2)cn1 [Compound 130, N-(2-fluoro-5-(((5-(1-methyl-1H-pyrazol-4-yl)pyridin-2-yl)methyl)amino)phenyl)-3-phenylpropanamide]",minimal effective concentration,"NMP53^−/− cells; Mus musculus, 120 h",0.5 µM
same,minimal effective concentration,"NMCdkn2a^ARF−/− cells; Mus musculus, 120 h",> 1 µM
